# Assay: HILIC, Waters ACQUITY UPLC BEH Amide, 100 × 2.1 mm, 1.7 µm; A: water + 0.125% formic acid + 10 mM ammonium formate; B: 5% water + 95% acetonitrile + 0.125% formic acid + 10 mM ammonium formate; gradient (min/%B) 0/100 2/100 7.7/70 9.5/40 10.25/30 12.75/100 17/100
# Settings: stereoisomer not certain
row,Compound,LC retention time [min]
1,O=C(O)c1ccnc2ccccc12 [4-Quinolinecarboxylic acid],4.58
2,CC1CC2C3CCC4=CC(=O)C=CC4(C)C3(Cl)C(O)CC2(C)C1(O)C(=O)CO (stereo unspecified) [Beclomethasone],1.26
3,CN1CCCC1c1cccnc1 (stereo unspecified) [Nicotine],5.34
4,CC(C)CC(NC(=O)OCc1ccccc1)C(=O)O (stereo unspecified) [N-Carbobenzyloxyleucine],1.28
5,CC(=O)Nc1ccc(O)cc1 [Acetaminophen],1.37
6,CC(C)c1ccc2oc3nc(N)c(C(=O)O)cc3c(=O)c2c1 [Amlexanox],1.81
7,CN1CCN(C2=Nc3cc(F)ccc3Cc3ccccc32)CC1 [Fluperlapine],2.3
8,CC(=O)OCc1ccccc1 [Benzylacetate],8.71
9,NCCS(=O)(=O)O [Taurine],7.85
10,COC(=O)N1CCN(C(=O)Cc2ccc(Cl)c(Cl)c2)C(CN2CCCC2)C1 (stereo unspecified),2.56
11,CCCCCCCCCC=O [Decanal],2.17
12,NC(CCC(=O)NC(Cc1ccc(O)cc1)C(=O)O)C(=O)O (stereo unspecified) [gamma-Glutamyltyrosine],8.52
13,CC(CCC(=O)O)C1CCC2C3C(=O)CC4CC(=O)CCC4(C)C3CC(=O)C12C (stereo unspecified) [Dehydrocholic acid],1.16
14,COCC1OC(n2cc(C)c(=O)[nH]c2=O)CC1O (stereo unspecified) [5'-O-Methylthymidine],1.46
15,Nc1ccccc1C(=O)CC(N)C(=O)O (stereo unspecified) [Kynurenine],6.98
16,CCN1CCCC1CNC(=O)c1c(O)c(Cl)cc(Cl)c1OC (stereo unspecified) [Raclopride],2.11
17,O=c1[nH]c(=O)n(C2CCCO2)cc1F (stereo unspecified) [Tegafur],1.22
18,O=c1cc(-c2ccccc2)oc2ccc(O)cc12 [6-Hydroxyflavone],1.26
19,NC(CCC(=O)NC(CS)C(=O)O)C(=O)O (stereo unspecified) [gamma-Glutamyl-cysteine],8.98
20,COC1C(O)C(CO)OC1n1cc(C)c(=O)[nH]c1=O (stereo unspecified) [2'-O-Methyl-5-methyluridine],1.75
21,CN1CCN(CCCN2c3ccccc3Sc3ccc(C(F)(F)F)cc32)CC1 [Trifluoperazine],2.15
22,COc1cc2ccc(=O)oc2cc1O [Scopoletin],1.16
23,C=CCC1C=C(C)CC(C)CC(OC)C2OC(O)(C(=O)C(=O)N3CCCCC3C(=O)OC(C(C)=CC3CCC(O)C(OC)C3)C(C)C(O)CC1=O)C(C)CC2OC (stereo unspecified) [Tacrolimus],1.07

row,Compound,LC retention time [min]
1,COc1nc(C)nc(Cl)c1NC1=NCCN1 [Moxonidine],3.28
2,CN=C(NC)NCCCC(N)C(=O)O (stereo unspecified) [SDMA],8.49
3,CC(=O)NC(Cc1cnc[nH]1)C(=O)O (stereo unspecified) [N-Acetylhistidine],8.07
4,CC(C)=CCCC(C)=CC(=O)O [Geranic acid],1.3
5,CC1OC(OC2C(CO)OC(OC3C(CO)OC(O)C(O)C3O)C(O)C2O)C(O)C(O)C1NC1C=C(CO)C(O)C(O)C1O (stereo unspecified) [Acarbose],9.88
6,NC(=O)NCCCC[C@H](N)C(=O)O [L-Homocitrulline],8.73
7,NC(CSCC(=O)O)C(=O)O (stereo unspecified) [Carbocysteine],9.04
8,CNC1CC(c2ccc(Cl)c(Cl)c2)c2ccccc21 (stereo unspecified) [Indatraline],2.88
9,Cc1ccc(NC(=O)c2ccc(CN3CCN(C)CC3)cc2)cc1Nc1nccc(-c2cccnc2)n1 [Imatinib],5.36
10,O=C(CO)c1ccccc1 [2-Hydroxyacetophenone],4.36
11,OC1CCCCC1N1CCC(c2ccccc2)CC1 (stereo unspecified) [Vesamicol],2.65
12,Cc1c2oc3c(C)ccc(C(=O)NC4C(=O)NC(C(C)C)C(=O)N5CCCC5C(=O)N(C)CC(=O)N(C)C(C(C)C)C(=O)OC4C)c3nc-2c(C(=O)NC2C(=O)NC(C(C)C)C(=O)N3CCCC3C(=O)N(C)CC(=O)N(C)C(C(C)C)C(=O)OC2C)c(N)c1=O (stereo unspecified) [Actinomycin D],1.03
13,COc1cc(C=CC(=O)O)cc(OC)c1O [Sinapic acid],1.41
14,COC(=O)c1cc(O)c(O)c(O)c1 [Methylgallate],1.43
15,NC(N)=NC(=O)c1nc(Cl)c(N)nc1N [Amiloride],5.52
16,CC(Cc1ccc(C(C)C(=O)O)cc1)C(=O)O (stereo unspecified) [Carboxyibuprofen],1.11
17,O=C1C(c2c(O)[nH]c3ccccc23)=Nc2ccccc21 [Indarubicin],1.07
18,CC1OC(OCC2OC(Oc3c(-c4ccc(O)cc4)oc4cc(O)cc(O)c4c3=O)C(O)C(O)C2O)C(O)C(O)C1O (stereo unspecified) [Kaempferol-3-O-rutinoside],6.09
19,CC(C)C(NC(=O)CN)C(=O)O (stereo unspecified) [Gly-val],8.05
20,CC(C)(C)NCC(O)c1ccc(O)c(CO)c1 (stereo unspecified) [Albuterol],5.55
21,O=C(c1ccc(F)cc1)C1CCN(CCn2c(=S)[nH]c3ccccc3c2=O)CC1 [Altanserin],2.64
22,CC12CCC3C4CCC(=O)C=C4CCC3C1CCC2O (stereo unspecified) [Nandrolone],1.06
23,CCCCCCCCCOc1ccc2[nH]cc(CCN)c2c1 [5-Nonyloxytryptamine],3.4

row,Compound,LC retention time [min]
1,O=C(CCc1ccc(O)cc1)c1c(O)cc(O)cc1O [Phloretin],1.5
2,"CC12CCC3C(CCC4CC(O)CCC43C)C1CCC2O (stereo unspecified) [Androstane-3,17-diol]",0.96
3,COc1ccc(C(=O)O)cc1 [P-Anisic acid],1.3
4,O=P(O)(O)OCC1OC(OC2OC(CO)C(O)C(O)C2O)C(O)C(O)C1O (stereo unspecified) [Trehalose-6-phosphate],9.72
5,CN(C)CCOC(c1ccccc1)c1ccccc1 [Diphenhydramine],2.15
6,CC(C)N=c1cc2n(-c3ccc(Cl)cc3)c3ccccc3nc-2cc1Nc1ccc(Cl)cc1 [Clofazimine],1.78
7,CN1CCC23c4c5ccc(O)c4OC2C(=O)CCC3C1C5 (stereo unspecified) [Hydromorphone],5.22
8,NC(=O)NC(N)=O [Biuret],2.73
9,CCN(CC)CCOC(=O)C(O)(c1ccccc1)c1ccccc1 [Benactyzine],2.16
10,O=Cc1ccc(O)cc1 [4-Hydroxybenzaldehyde],1.18
11,Cc1ncc2n1-c1ccc(Cl)cc1C(c1ccccc1F)=NC2 [Midazolam],1.29
12,O=C(O)CCc1c[nH]c2ccccc12 [3-Indolepropionic acid],1.28
13,CC(=O)N[C@@H](CCC(N)=O)C(=O)O [N-Acetyl-L-glutamine],8.18
14,c1c[nH]cn1 [Imidazole],4.53
15,O=C(O)C1NCCC1O (stereo unspecified) [3-Hydroxyproline],8.17
16,"O=c1[nH]cnc2c1ncn2C1CCC(CO)O1 (stereo unspecified) [2',3'-Dideoxyinosine]",3.44
17,COC1C(O)C(CO)OC1n1cnc2c(=O)[nH]cnc21 (stereo unspecified) [2'-O-Methylinosine],4.06
18,COc1ccc2[nH]cc(CCO)c2c1 [5-Methoxytryptophol],1.18
19,O=C(O)Cc1c[nH]c2ccc(O)cc12 [5-Hydroxy-3-indoleacetic acid],1.78
20,Nc1ccccc1O [2-Aminophenol],1.22
21,CCCCCCCCOC(=O)c1ccccc1C(=O)OCCCCCCCC [Dioctyl Phthalate],0.96
22,NCCCC(=O)O [gamma-Aminobutyric Acid],7.86
23,O=C(O)CCP(=O)(O)O [3-Phosphonopropionic acid],8.59

row,Compound,LC retention time [min]
1,C#CC1(O)CCC2C3C(C)CC4=C(CCC(=O)C4)C3CCC21C (stereo unspecified) [Tibolone],1
2,CCCc1nc2c(C)cc(-c3nc4ccccc4n3C)cc2n1Cc1ccc(-c2ccccc2C(=O)O)cc1 [Telmisartan],1.25
3,O=C1c2c(O)cc(O)cc2OC(c2ccc(O)c(O)c2)C1O (stereo unspecified) [Taxifolin],1.78
4,COc1ccc2c(c1)c(CC(=O)O)c(C)n2C(=O)c1ccc(Cl)cc1 [Indomethacin],1.08
5,COc1cc(-c2oc3cc(O)cc(O)c3c(=O)c2OC2OC(CO)C(O)C(O)C2O)ccc1O (stereo unspecified) [Isorhamnetin-3-glucoside],4.49
6,NCCO [Ethanolamine],7.15
7,O=C(O)C1CCCCN1 (stereo unspecified) [Pipecolic acid],7.83
8,CN(CCCN1c2ccccc2CCc2ccccc21)CC(=O)c1ccc(Cl)cc1 [Lofepramine],1.91
9,CC12Cc3cn[nH]c3CC1CCC1C2CCC2(C)C1CCC2(C)O (stereo unspecified) [Stanozolol],1.19
10,N=C1NC(=O)C(c2ccccc2)O1 (stereo unspecified) [Pemoline],1.39
11,O=C(CCNNC(=O)c1ccncc1)NCc1ccccc1 [Nialamide],1.69
12,OCC(O)C(O)CO (stereo unspecified) [Threitol],1.56
13,CN1CCC23c4c5ccc(O)c4OC2C(=O)CCC3(O)C1C5 (stereo unspecified) [Oxymorphone],5.5
14,O=C(O)CCc1nc(-c2ccccc2)c(-c2ccccc2)o1 [Oxaprozin],1.11
15,CCCC(=O)OCC [Ethylbutanoate],4.88
16,c1ncc2[nH]cnc2n1 [Purine],2.44
17,Cc1occc(=O)c1O [Maltol],1.32
18,CC(=O)NCCCCCCNC(C)=O,1.5
19,CCCCc1nc(Cl)c(CO)n1Cc1ccc(-c2ccccc2-c2nn[nH]n2)cc1 [Losartan],1.27
20,CC(C)CCCC(C)C1CCC2C3C(O)C=C4CC(O)CCC4(C)C3CCC12C (stereo not drawn) [5-Cholesten-3-beta-7-alpha-diol],3.36
21,OCCN1CC(O)C(O)C(O)C1CO (stereo unspecified) [Miglitol],8.12
22,Nc1ncnc2c1ncn2C1OC(CSCCC(N)C(=O)O)C(O)C1O (stereo unspecified) [S-Adenosyl-homocysteine],8.85
